The results in this text go back to patent US20090240045A1, “Organic Compounds” (Novartis AG, priority 2006, published 2009).

The experiment concerns the target adenosine A2A receptor (Homo sapiens, UniProt P29274). The experiment can be described thus: Adenosine A2A receptor agonist assay (method of Murphree et al.). In kind it is binding. The following applies: method described by Murphree et al., Mol Pharmacol, Vol. 61, pp. 455-462 (2002). An excerpt: Compounds of formula (I) and their pharmaceutically acceptable salts are useful as pharmaceuticals. In particular, they activate the adenosine A2A receptor, i.e., they act as A2A receptor agonists.

Structures are written as SMILES. Structures can show the parent of a compound that is named as a salt.

Chain of adenosine A2A receptor (P29274 whole entry): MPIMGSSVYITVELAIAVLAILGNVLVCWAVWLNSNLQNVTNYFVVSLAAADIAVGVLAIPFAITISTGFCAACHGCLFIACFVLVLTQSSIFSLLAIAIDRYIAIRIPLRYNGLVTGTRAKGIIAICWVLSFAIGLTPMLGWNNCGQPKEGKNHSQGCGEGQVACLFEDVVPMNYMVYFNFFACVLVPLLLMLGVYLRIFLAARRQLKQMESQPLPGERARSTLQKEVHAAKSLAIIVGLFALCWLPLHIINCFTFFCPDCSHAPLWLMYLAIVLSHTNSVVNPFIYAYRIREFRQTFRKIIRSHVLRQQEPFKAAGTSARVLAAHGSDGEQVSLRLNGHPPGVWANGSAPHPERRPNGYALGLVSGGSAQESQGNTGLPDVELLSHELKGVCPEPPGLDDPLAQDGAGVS

As to `O=C(N[C@@H]1CCNC1)N[C@@H]1CCN(c2nc(NCC(c3ccccc3)c3ccccc3)c3ncn([C@@H]4O[C@H](CO)[C@@H](O)[C@H]4O)c3n2)C1` [Example 11, 1-{(R)-1-[9-(2R,3R,4S,5R)-3,4-Dihydroxy-5-hydroxymethyl-tetrahydro-furan-2-yl)-6-(2,2-diphenyl-ethylamino)-9H-purin-2-yl]-pyrrolidin-3-yl}-3-(R)-pyrrolidin-3-yl-urea trifluoroacetate], the Ki is 12 nM. The value for `CCn1nnc([C@H]2O[C@@H](n3cnc4c(NCC(c5ccc(O)cc5)c5ccc(O)cc5)nc(N5CC[C@@H](NC(=O)c6ccc(N7CCOCC7)nc6)C5)nc43)[C@H](O)[C@@H]2O)n1` [Example 77, N-((R)-1-{6-[2,2-bis-(4-Hydroxy-phenyl)-ethylamino]-9-[(2R,3R,4S,5R)-5-(2-ethyl-2H-tetrazol-5-yl)-3,4-dihydroxy-tetrahydro-furan-2-yl]-9H-purin-2-yl}-pyrrolidin-3-yl)-6-morpholin-4-yl-nicotinamide trifluoroacetate] was 6 nM.
